What was measured:
[1] = target: T1, EYA4 serine/threonine phosphatase domain (Homo sapiens, UniProt O95677); test: Malachite green phosphatase assay, first 365 residues of EYA4 (serine/threonine phosphatase domain), 53BP1-derived peptide; assay type: biochemical
T1 construct: the N-terminus domain of EYA4 (residues 1-365), was sub-cloned as a Strep-mCherry-EYA4-His construct; Strep (N); His (C); made in house; host or cells: Sf9 insect cells (baculovirus, pFastBac1)
T1 sequence (O95677 1-365): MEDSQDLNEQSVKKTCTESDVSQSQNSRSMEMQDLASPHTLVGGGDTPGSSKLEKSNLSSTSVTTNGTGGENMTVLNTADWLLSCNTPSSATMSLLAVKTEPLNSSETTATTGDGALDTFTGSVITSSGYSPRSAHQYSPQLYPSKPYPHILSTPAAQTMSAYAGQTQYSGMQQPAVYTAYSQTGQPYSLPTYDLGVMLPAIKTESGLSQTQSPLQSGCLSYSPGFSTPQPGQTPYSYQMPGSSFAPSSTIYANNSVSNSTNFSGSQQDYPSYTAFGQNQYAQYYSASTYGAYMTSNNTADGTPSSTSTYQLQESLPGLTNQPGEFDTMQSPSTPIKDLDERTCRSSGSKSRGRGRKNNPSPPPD
Experimental: (§1) To measure phosphatase activity, increasing concentrations of EYA4 (0-200 nM, alone or pre-incubated with ssDNA) were incubated in the presence of 400 nM potential substrates (peptides sourced from Genscript, see list and sequence in figures) in 50 μL of reaction buffer A ([…] pH 6, 2 mM MgCl2, 50 μM DTT) for 1 h at 37° C. At the end of the first incubation, the reaction mix containing malachite green was added to phosphatase or ATPase reactions, and the mixture was further incubated for 30 minutes at 37° C. Plates were read at 620 nm in a plate reader. The quantity of […] was inferred from the standard curve prepared as per manufacturer recommendation (Sigma).
In a malachite green assay, the tyrosine but not serine/threonine phosphatase activity was inhibited by CIDD molecule—149689. For this assay, full length EYA4 purified near homogeneity as previously described was incubated with increasing amounts of inhibitor, then mixed with either peptide KATQASQE{pTyr} from H2AX or with peptide from RAD51.

[2] = target: T2, EYA4 tyrosine phosphatase (Homo sapiens, UniProt O95677); test: Malachite green phosphatase assay, full length EYA4, tyrosine phosphatase activity; assay type: biochemical; conditions: increasing amounts of inhibitor
T2 construct: GFP (pEGFP-C1) (N, cleaved yes); made in house; host or cells: Expi293 mammalian suspension cells
T2 sequence (O95677 1-639): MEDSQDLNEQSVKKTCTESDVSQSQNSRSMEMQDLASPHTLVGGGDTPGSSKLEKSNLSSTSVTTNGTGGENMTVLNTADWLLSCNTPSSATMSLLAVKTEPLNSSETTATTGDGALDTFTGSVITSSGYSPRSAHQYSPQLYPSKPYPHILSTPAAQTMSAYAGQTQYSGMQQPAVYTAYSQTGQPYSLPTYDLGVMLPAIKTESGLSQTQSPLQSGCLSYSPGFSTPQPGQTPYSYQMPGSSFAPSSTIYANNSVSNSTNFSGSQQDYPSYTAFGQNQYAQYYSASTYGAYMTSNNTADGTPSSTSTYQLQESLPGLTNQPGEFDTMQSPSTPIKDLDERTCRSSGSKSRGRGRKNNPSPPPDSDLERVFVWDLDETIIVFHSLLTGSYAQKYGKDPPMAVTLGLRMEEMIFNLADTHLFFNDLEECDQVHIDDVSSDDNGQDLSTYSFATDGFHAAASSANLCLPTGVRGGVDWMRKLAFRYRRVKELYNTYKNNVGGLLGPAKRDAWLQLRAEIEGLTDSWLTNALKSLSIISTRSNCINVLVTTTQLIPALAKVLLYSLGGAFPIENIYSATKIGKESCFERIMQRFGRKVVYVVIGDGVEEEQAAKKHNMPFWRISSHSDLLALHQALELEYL
Experimental: as §1
EYAT-3 proteins have been described to dephosphorylate residue Y142 on the histone variant H2AX and the same activity was recently confirmed in EYA4. Using the synthetic peptide KATQASQE{pTyr} as substrate and a commercial colorimetric malachite green assay (Sigma) that allows to quantify […] released in the buffer by a phosphatase, EYA4's tyrosine phosphatase activity was assayed in the presence of putative inhibitors.
In a malachite green assay, the tyrosine but not serine/threonine phosphatase activity was inhibited by CIDD molecule—149689. […]

[3] = system: HRD+ pancreatic cell lines; test: Survival of treated pancreatic cell lines panel; assay type: cell-based; conditions: at the concentrations tested, FIG. 34C
From the text: Using molecules that target regulators of DNA metabolism mechanisms (repair, recombination, replication), such as kinase and phosphatase can offer a therapeutic window for drug resistant, HRD>0 patients. EYA4 inhibitors have been tested on the pancreatic cell lines panel. […] EYA4i have therapeutic potential for the treatment of pancreatic cancer, including PARPi refractory disease.

serine/threonine phosphatase activity [1]	EYA4 tyrosine phosphatase activity ([2]; peptide KATQASQE{pTyr} from H2AX)	EYA4 tyrosine phosphatase activity ([2]; peptide from RAD51)	Compound	growth of pancreatic cells [3]
not inhibited	significantly reduced	significantly reduced	Clc1ccc(CNc2nc(NC3CCCC3)nc3ccccc23)cc1Cl [CIDD molecule—149689, N2-cyclopentyl-N4-(3,4-dichlorobenzyl) quinazoline-2,4-diamine]	–
–	–	–	O=C(NN=Cc1ccc(Sc2ncccn2)o1)c1cccc(Cl)c1 [CSCS14817788384, 3-chloro-N′-{[5-(pyrimidin-2-ylsulfanyl)furan-2-yl]methylidene}benzohydrazide]	does not efficiently inhibit growth

— US20250009750A1, “METHODS OF TREATING DISORDERS ASSOCIATED WITH EYA OVEREXPRESSION AND MUTATIONS” (The Board of Regents of the University of Texas System, priority 2023, published 2025)
